The numbers were not newly measured in article PMC7395068, “The evolution of strategies to minimise the risk of human drug-induced liver injury (DILI) in drug discovery and development” (Archives of Toxicology, 2020), which cites them from elsewhere.

Like-named read-outs stand apart in the source and are kept apart here.

In one data set the test system is rBsep. The conditions noted are these: cited from earlier work.
Data set [1] has as its system HepG2 cells, primary human hepatocytes. The conditions noted are these: In vitro Assay; ref Garside 2014; cited from earlier work.
For data set [2] the following is noted: cited from earlier work.
In data set [3] the test system is THLE-Null and THLE-3A4 cells. The conditions noted are these: In vitro Assay; ref Gustafsson 2014; cited from earlier work.
In data set [4] the test system is primary human hepatocytes, NIH3T3 fibroblasts, BSEP, CYP3A4. As to conditions: In vitro Assay; ref Schadt 2015; cited from earlier work.
The next data set relates to PHH spheroids. The conditions noted are these: cited from earlier work; for hLiMTs ATP <20 x Cmax: In vitro Assay, ref Vorrink 2018.
Data set [5] relates to isolated mouse liver mitochondria. The conditions noted are these: In vitro Assay; ref Porceddu 2012; cited from earlier work.
The test system of another data set is human hepatocytes. The conditions noted are these: In vitro Assay; ref Xu 2008; cited from earlier work.
For data set [6] the following is noted: ref Chen 2016; cited from earlier work.
The test system of data set [7] is THLE or HepG2 cells, isolated mitochondria, BSEP. As to conditions: In vitro Assay; ref Aleo 2019; cited from earlier work.
Data set [8] deals with HepG2 cells. As to conditions: In vitro Assay; ref Persson 2013; cited from earlier work.
Data set [9] concerns HepG2 cells. The conditions noted are these: In vitro Assay; ref O'Brien 2006; cited from earlier work.
Setting [10] is: In vitro Assay, ref Dawson 2012.

As for `O=C(O)[C@H]1/C(=C/CO)O[C@@H]2CC(=O)N21` [clavulanate], in the data set on rBsep (setting [10]), the “Inhibition of rBsep cutoff<1& cmax u>.2” value is given as “-VE” and the “Inhibition of rBsep cutoff<3” value is recorded as “-VE”. Further, the “Cluster 1-6 +VE Assay” value in data set [1] was “-VE”. In data set [2] ([…]), the “In vivo DILI” value was “-VE”. In data set [2] (ref Dawson 2012), the “In vivo DILI” value is “+VE”. Moreover, the “In vivo DILI” value in [2] (ref Garside 2014) is recorded as “+VE”. For the same compound, the “In vivo DILI” value in [2] (ref Gustafsson 2014) is given as “+VE”. Further, the “In vivo DILI” value in [2] (ref Schadt 2015) was “+VE”. Further, in data set [3], the THLE-Null result is reported as “-VE” and the THLE-Null/3A4 entry is listed as “-VE”. Also, in [4], the “Cellular toxicity (3T3 cells)” value is on record as “-VE”, the “Combined Assay” value is listed as “-VE”, the “GSH adduct HML” value was “-VE” and the Hepatocyte cellular toxicity entry is reported as “-VE”. Further, in [4], the “MitoTox 3T3” value is given as “-VE”, the “TDI CYP3A4” value is “-VE” and the hBSEP inhibition result is recorded as “-VE”.

Turning to `NNc1nnc(NN)c2ccccc12` [dihydralazine], in the data set with rBsep (setting [10]), the “Inhibition of rBsep cutoff<1& cmax u>.2” value is “-VE”. In addition, the “Inhibition of rBsep cutoff<3” value in the data set on rBsep (setting [10]) was “-VE”. Also, in data set [1], the “Cluster 1-6 +VE Assay” value is “+VE”. For the same compound, the “In vivo DILI” value in [2] (ref Dawson 2012), in data set [2] (ref Garside 2014), in data set [2] (ref Gustafsson 2014) and in data set [2] (ref Vorrink 2018) was “+VE” in each case. In addition, in data set [3], the THLE-Null result is “-VE”. Moreover, in data set [3], the THLE-Null/3A4 entry is on record as “-VE”. For the same compound, the “hLiMTs ATP <20 x Cmax” value in the data set on PHH spheroids is given as “+VE (IC20 < 20 × Cmax.tot cut-off)”.

With `CCN(CC)C(=S)SSC(=S)N(CC)CC` [disulfiram], the “in vitro data EC2<=1x Cmax” value in data set [5] is listed as “+VE”. Moreover, in data set [1], the “Cluster 1-6 +VE Assay” value is listed as “+VE”. Moreover, the THLE-Null entry in [3] is listed as “+VE”. Further, the “hLiMTs ATP <20 x Cmax” value in the data set with PHH spheroids is listed as “+VE (IC20 < 20 × Cmax.tot cut-off)”.

On to `NCCc1ccc(O)c(O)c1` [dopamine], for which, in the data set on human hepatocytes, the “Structural based (HCI)” value was “-VE”. Moreover, the “Inhibition of rBsep cutoff<1& cmax u>.2” value in the data set with rBsep (setting [10]) is on record as “-VE”. Besides, in the data set with rBsep (setting [10]), the “Inhibition of rBsep cutoff<3” value is listed as “-VE”. For the same compound, in data set [1], the “Cluster 1-6 +VE Assay” value is listed as “-VE”. Moreover, the “DILI +VE (5-8), DILI -VE (-4)” value in data set [6] is “-VE”. The DILI severity category result in data set [6] is reported as “vNo-DILI-Concern”. For the same compound, the “In vivo DILI” value in data set [2] (ref Dawson 2012), in data set [2] (ref Garside 2014), in [2] (ref Gustafsson 2014), in data set [2] (ref Vorrink 2018) and in data set [2] (ref Xu 2008) was “-VE” throughout. In addition, the THLE-Null entry in [3] is “-VE”. In addition, the THLE-Null/3A4 entry in data set [3] is given as “-VE”. In addition, the “hLiMTs ATP <20 x Cmax” value in the data set with PHH spheroids is “-VE”.

For `O=C(OCC(O)CO)c1ccccc1Nc1ccnc2cc(Cl)ccc12` (stereo not shown) [glafenine], the “Structural based (HCI)” value in the data set with human hepatocytes is “-VE”. Besides, the “Inhibition of rBsep cutoff<1& cmax u>.2” value in the data set on rBsep (setting [10]) was “+VE”. In addition, the “Inhibition of rBsep cutoff<3” value in the data set on rBsep (setting [10]) is reported as “+VE”. In addition, in [1], the “Cluster 1-6 +VE Assay” value was “+VE”. The “DILI +VE (5-8), DILI -VE (-4)” value in data set [6] is “+VE”. In addition, the DILI severity category entry in data set [6] is recorded as “vMost-DILI-Concern”. The “In vivo DILI” value in data set [2] ([…]), in data set [2] (ref Dawson 2012), in [2] (ref Garside 2014), in data set [2] (ref Gustafsson 2014), in data set [2] (ref Vorrink 2018) and in data set [2] (ref Xu 2008) was “+VE” throughout. For the same compound, the THLE-Null result in data set [3] was “-VE”. Besides, the THLE-Null/3A4 result in data set [3] is “+VE”. For the same compound, the “hLiMTs ATP <20 x Cmax” value in the data set with PHH spheroids was “-VE”.

For the compound `Cc1ccc(S(=O)(=O)NC(=O)NN2CC3CCCC3C2)cc1` (stereo not shown) [gliclazide], the “Structural based (HCI)” value in the data set with human hepatocytes is “-VE”. The “Inhibition of rBsep cutoff<1& cmax u>.2” value in the data set with rBsep (setting [10]) is “-VE”. In addition, the “Inhibition of rBsep cutoff<3” value in the data set on rBsep (setting [10]) is “-VE”. The “Cluster 1-6 +VE Assay” value in data set [1] was “-VE”. Moreover, the “In vivo DILI” value is reported as “+VE” in data set [2] (ref Dawson 2012), “+VE” in [2] (ref Garside 2014), “+VE” in data set [2] (ref Gustafsson 2014) and “-VE” in data set [2] (ref Xu 2008). Besides, the THLE-Null result in data set [3] is reported as “-VE”. In [3], the THLE-Null/3A4 result is “-VE”.

As to `CC(C)NNC(=O)c1ccncc1` [iproniazid, reference compound], the “Inhibition of rBsep cutoff<1& cmax u>.2” value in the data set on rBsep (setting [10]) is “-VE”. Besides, the “Inhibition of rBsep cutoff<3” value with rBsep (setting [10]) was “-VE”. Further, the “Cluster 1-6 +VE Assay” value in data set [1] is reported as “-VE”. Besides, in data set [7], the “Partition Hybrid HRM Score” value is reported as “-VE”. Also, the “Ro2 Hybrid HRM Score” value in data set [7] was “-VE”. Also, the “DILI +VE (5-8), DILI -VE (-4)” value in data set [6] was “+VE”. Moreover, in data set [6], the DILI severity category result is “vMost-DILI-Concern”. In addition, the “In vivo DILI” value in data set [2] ([…]), in data set [2] (ref Aleo 2019), in [2] (ref Dawson 2012), in data set [2] (ref Garside 2014), in data set [2] (ref Gustafsson 2014) and in data set [2] (ref Persson 2013) was “+VE” in each case. For the same compound, the “In vivo DILI” value in data set [2] (ref Vorrink 2018) was “+VE”. Moreover, in [3], the THLE-Null result is given as “-VE”. The THLE-Null/3A4 entry in data set [3] is given as “-VE”. The “response of PHH spheroids at 5 × Cmax.tot” value in the data set with PHH spheroids (ATP, 14 days, not positive at higher concentrations, ref Vorrink et al. 2018) is recorded as “positive”. In addition, the “hLiMTs ATP <20 x Cmax” value in the data set with PHH spheroids is listed as “-VE”. Besides, the Cluser analysis entry in the data set with HepG2 cells [8] is recorded as “-VE”. In addition, the “Structural based (HCI)” value in the data set on HepG2 cells [8] was “+VE”.

`CN(C)CCN(Cc1cccs1)c1ccccn1` [methapyrilene]: the “Structural based (HCI)” value in the data set with HepG2 cells [9] was “+VE”. Also, the “Cluster 1-6 +VE Assay” value in [1] is “-VE”. The “In vivo DILI” value in [2] (ref Dawson 2012) is given as “-VE”; in data set [2] (ref Garside 2014), “-VE”; in [2] (ref Gustafsson 2014) it was “-VE”; in data set [2] (ref O'Brien 2006), “+VE”; in data set [2] (ref Vorrink 2018) it was “-VE”. For the same compound, the THLE-Null entry in data set [3] is recorded as “-VE”. Besides, the “hLiMTs ATP <20 x Cmax” value in the data set with PHH spheroids is reported as “-VE”.

In the case of `CNC(=O)Oc1ccc2c(c1)[C@]1(C)CCN(C)[C@@H]1N2C` [physostigmine], the “Inhibition of rBsep cutoff<3” value in the data set on rBsep (setting [10]) was “-VE”. In addition, the “Inhibition of rBsep cutoff<1& cmax u>.2” value with rBsep is listed as “-VE”. Besides, the “Cluster 1-6 +VE Assay” value in data set [1] is “-VE”. In data set [6], the “DILI +VE (5-8), DILI -VE (-4)” value is on record as “-VE”. In [6], the DILI severity category result is recorded as “vNo-DILI-Concern”. Further, the “In vivo DILI” value in [2] (ref Dawson 2012), in data set [2] (ref Garside 2014), in data set [2] (ref Gustafsson 2014) and in data set [2] (ref Vorrink 2018) was “-VE” each time. Besides, the THLE-Null result in data set [3] is “-VE”. Also, in data set [3], the THLE-Null/3A4 entry was “-VE”.

Take `CC(=O)Nc1ccc(OCC(O)CNC(C)C)cc1` (stereo not shown) [practolol]: in the data set on rBsep (setting [10]), the “Inhibition of rBsep cutoff<1& cmax u>.2” value was “-VE” and the “Inhibition of rBsep cutoff<3” value is “-VE”. The “Cluster 1-6 +VE Assay” value in data set [1] was “-VE”. The THLE-Null result in [3] is listed as “-VE”. In addition, in the data set with PHH spheroids, the “hLiMTs ATP <20 x Cmax” value is given as “-VE”.

For the compound `CCCN(CCC)S(=O)(=O)c1ccc(C(=O)O)cc1` [probenecid], in the data set with rBsep (setting [10]), the “Inhibition of rBsep cutoff<1& cmax u>.2” value was “-VE” and the “Inhibition of rBsep cutoff<3” value is given as “-VE”. The “Cluster 1-6 +VE Assay” value in data set [1] is recorded as “+VE”. In addition, in data set [6], the “DILI +VE (5-8), DILI -VE (-4)” value is on record as “-VE” and the DILI severity category result is given as “Ambiguous DILI-concern”. Besides, the “In vivo DILI” value in data set [2] (ref Dawson 2012) was “+VE”. Further, in [2] (ref Garside 2014), the “In vivo DILI” value was “+VE”. For the same compound, the “In vivo DILI” value in [2] (ref Gustafsson 2014) is listed as “+VE”. For the same compound, in [2] (ref Schadt 2015), the “In vivo DILI” value was “-VE”. In addition, in [3], the THLE-Null result was “-VE” and the THLE-Null/3A4 result is given as “-VE”. In addition, in data set [4], the “Cellular toxicity (3T3 cells)” value is “-VE”, the “Combined Assay” value was “-VE”, the “GSH adduct HML” value is given as “-VE” and the Hepatocyte cellular toxicity entry was “-VE”. Besides, in [4], the “MitoTox 3T3” value is given as “-VE”, the “TDI CYP3A4” value was “-VE” and the hBSEP inhibition result is reported as “-VE”.
